Patent US20160264558A1, “FLUOROGENIC PROTECTING GROUP” (ISIS INNOVATION LIMITED, priority 2013, published 2016)
Blank lines part the entries; values can stand above or below the molecule they belong to.

Key:
BRD4 = BRD4 (Homo sapiens, UniProt O60885); experiment: AlphaScreen assay against BRD4; assay type: binding
[1] = molecular target: T1, purified human cytochrome p450 reductase (Homo sapiens, UniProt P16435); experiment: Purified reductase assay (hypoxic/normoxic incubation, HPLC); assay type: in vitro ADME; conditions: 250 nM
T1 construct: purchased Cypex
T1 sequence (P16435 1-677): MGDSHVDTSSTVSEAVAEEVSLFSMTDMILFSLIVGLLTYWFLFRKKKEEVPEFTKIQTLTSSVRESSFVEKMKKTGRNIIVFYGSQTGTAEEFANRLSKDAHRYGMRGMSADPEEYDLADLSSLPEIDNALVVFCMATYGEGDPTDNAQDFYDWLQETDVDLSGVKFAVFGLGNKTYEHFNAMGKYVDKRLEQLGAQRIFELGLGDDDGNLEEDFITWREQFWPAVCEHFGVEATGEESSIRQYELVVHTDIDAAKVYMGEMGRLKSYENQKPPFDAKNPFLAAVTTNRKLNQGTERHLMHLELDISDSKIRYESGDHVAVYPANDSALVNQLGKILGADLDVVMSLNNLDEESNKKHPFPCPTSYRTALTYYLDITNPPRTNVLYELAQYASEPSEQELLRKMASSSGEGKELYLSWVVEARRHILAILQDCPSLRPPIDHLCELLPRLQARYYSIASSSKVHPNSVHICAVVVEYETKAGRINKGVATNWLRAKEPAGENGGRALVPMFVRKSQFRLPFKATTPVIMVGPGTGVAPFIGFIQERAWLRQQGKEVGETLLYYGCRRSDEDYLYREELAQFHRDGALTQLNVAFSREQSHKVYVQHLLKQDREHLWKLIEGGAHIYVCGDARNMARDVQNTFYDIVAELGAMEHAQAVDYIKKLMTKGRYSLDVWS
Procedure: The bioreductive compound 18 (Example 1) was incubated with purified human cytochrome p450 reductase in hypoxic and normoxic conditions.
Bactosomal human NADPH-CYP reductase (Cypex, 12.7 mg/mL, 13900 nmol/min/mL) was used in combination with an NADPH-regenerating system (BD Biosciences), and the assay was carried out according to the manufacturer's protocol (BD Biosciences application note 467) at a compound 18 concentration of 250 nM. For hypoxic conditions, vials were deoxygenated by bubbling nitrogen prior to P450 addition and then transferred into a Bactron II (Shell laboratories). Samples were taken at different time points and analyzed by HPLC.

[2] = test system: RKO (colorectal) cancer cell lines; experiment: Cell-based assay: incubation in RKO cells, HPLC of the lysate
Procedure: Compound 21 was administered to cells in culture and incubated in (a) hypoxic and (b) normoxic conditions.
RKO (colorectal) cancer cell lines were cultured in DMEM medium containing 10% FBS, penicillin (100 U/mL) and streptomycin (100 μg/mL). RKO cell line was originally obtained from the ATCC and routinely mycoplasma tested and found to be negative. Experiments were carried out with cells at 75% confluence.
Hypoxia Treatments were carried out in a Bactron II (Shell laboratories), In vivo 400 (Ruskinn), or Heracell mixed gas incubator (Fisher Scientific) depending on the level of hypoxia required.
HPLC Analysis HPLC (Waters 2695 system) comprised an RPB column (100 mm×3.2 mm, 35° C.). […] Detection used a photodiode array spectrophotometer (Waters 2996), a mass spectrometer (Waters Micromass ZQ mass spectrometer), and a UV spectrometer (Waters 296 diode array detector) scanning from 210 nm to 400 nm with a resolution set at 3.6 nm. Injections of 10 μL were made.

[3] = Fluorimetry of compound A and its reduced counterpart B; assay type: physicochemical; conditions: 50 μM in iPrOH, excitation wavelength 515 nm, (FIG. 6)
Procedure: Compound A (Example 7) was synthesised in accordance with Sun et at (Chem. Commun., 2013, 49, 3890-3892). Fluorescence spectra of the compound, as well as its reduced counterpart compound B, was confirmed by fluorimetry.
50 μM solutions of A and B were prepared in iPrOH and fluorimetry carried out using a Perkin Elmer Luminescence Spectrometer LS 50 B with an excitation wavelength of 515 nm. Results are depicted in FIG. 6.

[4] = molecular target: T2, Cytochrome P450 reductase (Homo sapiens, UniProt P16435); experiment: Cytochrome P450 reductase assay of compound A; assay type: in vitro ADME; conditions: anaerobic conditions, over 8 h (FIG. 8)
T2 sequence (P16435 1-677): T1 sequence (P16435 1-677)
Procedure: Compound A was subject to a Cytochrome P450 reductase assay in accordance with the procedure of Cazares-Korner (CH-01 is a hypoxia-activated prodrug that sensitizes cells to hypoxia/reoxygenation through inhibition of Chk1 and Aurora A., ACS Chem. Biol. 2013 DOI:10.1021/cb4001537).
FIG. 8 records absorbance at 0, 2, 4 and 8 hours under hypoxic (FIG. 8a) and normoxic (FIG. 8b) conditions.

decrease in potency vs compound 3 (BRD4; BRD4 AlphaScreen IC50, compound 18 vs compound 3): 2 fold
IC50 (BRD4; same AlphaScreen assay): 749 nM
reduction/fragmentation by human CYP reductase ([1]; normoxic conditions, HPLC (FIG. 2b)): no activation was observed
Structure (SMILES): Cc1noc(C)c1-c1cc(OCc2c([N+](=O)[O-])ccc3ncccc23)cc(C(O)c2ccccc2)c1 (stereo not drawn) [Compound 18, (3-(3,5-Dimethylisoxazol-4-yl)-5-((6-nitroquinolin-5-yl)methoxy)phenyl)(phenyl) methanol]
reduction/fragmentation by human CYP reductase ([1]; hypoxic conditions, HPLC (FIG. 2a)): undergoes reduction by human CYP, including fragmentation to release compound 3

UV absorbance of the compound's peak in the cell lysate ([2]; normoxia, over 24 h, HPLC (FIG. 3b)): continued to increase
melting point: 204 to 206 °C
Structure (SMILES): CC(=O)Nc1ccc(OCc2c([N+](=O)[O-])ccc3ncccc23)cc1 [Compound 21, N-(4-((6-Nitroquinolin-5-yl)methoxy)phenyl)acetamide]
UV absorbance of the compound's peak in the cell lysate ([2]; hypoxia, HPLC (FIG. 3a)): hypoxia-dependent decrease in UV absorbance

difference in fluorescence emission between A and B [3]: ~650 fold
reductive conversion to compound B [4]: trace reductive conversion to compound B
Structure (SMILES): N#CC(C#N)=C1C=C(/C=C/c2ccc(N=[N+]=[N-])cc2)Oc2ccccc21 [Compound A, (E)-2-(2-(4-azidostyryl)-4H-chromen-4-ylidene)malononitrile]
